# Laboratory results published in ChEMBL document CHEMBL1157124, “Synthesis and anticancer evaluation of alpha-lipoic acid derivatives” (Bioorg Med Chem Lett, 2010).
# What was measured:
# Format in all cases: functional
# [1] = Cytotoxicity against human HO8910 cells assessed as growth inhibition at 100 ug/ml after 24 hrs by MTT assay; conditions: HO-8910, 24 h, read-out: GI
# [2] = Cytotoxicity against human HO8910 cells assessed as growth inhibition at 1 ug/ml after 24 hrs by MTT assay; conditions: HO-8910, 24 h, read-out: GI
# [3] = Cytotoxicity against human HO8910 cells assessed as growth inhibition at 0.1 ug/ml after 24 hrs by MTT assay; conditions: HO-8910, 24 h, read-out: GI
# [4] = tested on: KB; assay: Cytotoxicity against human KB cells assessed as growth inhibition at 100 ug/ml after 24 hrs by MTT assay; conditions: read-out: GI
# [5] = tested on: KB; assay: Cytotoxicity against human KB cells assessed as growth inhibition at 10 ug/ml after 24 hrs by MTT assay; conditions: read-out: GI
# [6] = tested on: KB; assay: Cytotoxicity against human KB cells assessed as growth inhibition at 1 ug/ml after 24 hrs by MTT assay; conditions: read-out: GI
# [7] = tested on: KB; assay: Cytotoxicity against human KB cells assessed as growth inhibition at 0.1 ug/ml after 24 hrs by MTT assay; conditions: read-out: GI
# [8] = tested on: Bel-7402; assay: Cytotoxicity against human Bel7402 cells assessed as growth inhibition at 100 ug/ml after 24 hrs by MTT assay; conditions: Bel-7402, 24 h, read-out: GI
# [9] = tested on: Bel-7402; assay: Cytotoxicity against human Bel7402 cells assessed as growth inhibition at 10 ug/ml after 24 hrs by MTT assay; conditions: Bel-7402, 24 h, read-out: GI
# [10] = tested on: Bel-7402; assay: Cytotoxicity against human Bel7402 cells assessed as growth inhibition at 1 ug/ml after 24 hrs by MTT assay; conditions: Bel-7402, 24 h, read-out: GI
# [11] = tested on: Bel-7402; assay: Cytotoxicity against human Bel7402 cells assessed as growth inhibition at 0.1 ug/ml after 24 hrs by MTT assay; conditions: Bel-7402, 24 h, read-out: GI
# [12] = tested on: NCI-H460; assay: Cytotoxicity against human NCI-H460 cells assessed as growth inhibition at 100 ug/ml after 24 hrs by MTT assay; conditions: NCI-H460, 24 h, read-out: GI
# [13] = tested on: NCI-H460; assay: Cytotoxicity against human NCI-H460 cells assessed as growth inhibition at 10 ug/ml after 24 hrs by MTT assay; conditions: NCI-H460, 24 h, read-out: GI
# [14] = tested on: NCI-H460; assay: Cytotoxicity against human NCI-H460 cells assessed as growth inhibition at 1 ug/ml after 24 hrs by MTT assay; conditions: NCI-H460, 24 h, read-out: GI
# [15] = tested on: NCI-H460; assay: Cytotoxicity against human NCI-H460 cells assessed as growth inhibition at 0.1 ug/ml after 24 hrs by MTT assay; conditions: NCI-H460, 24 h, read-out: GI
# [16] = Cytotoxicity against human HO8910 cells assessed as growth inhibition at 10 ug/ml after 24 hrs by MTT assay; conditions: HO-8910, 24 h, read-out: GI
smiles,measurement,setting,value
O=C(CCCCC(S)CCS)Nc1ccc(Cl)cc1 (centres undefined),inhibition of growth at 100 µg/mL,[1],21.3%
same,inhibition of growth at 1 µg/mL,[2],2.81%
same,inhibition of growth at 0.1 µg/mL,[3],1.04%
same,inhibition of growth at 100 µg/mL,[4],44.1%
same,inhibition of growth at 10 µg/mL,[5],18.2%
same,inhibition of growth at 1 µg/mL,[6],13.3%
same,inhibition of growth at 0.1 µg/mL,[7],9.11%
same,inhibition of growth at 100 µg/mL,[8],25.5%
same,inhibition of growth at 10 µg/mL,[9],1.16%
same,inhibition of growth at 1 µg/mL,[10],0.27%
same,inhibition of growth at 0.1 µg/mL,[11],1.06%
same,inhibition of growth at 100 µg/mL,[12],40.9%
same,inhibition of growth at 10 µg/mL,[13],21.9%
same,inhibition of growth at 1 µg/mL,[14],6.76%
O=C(CCCCC(S)CCS)Nc1cccc2ccccc12 (centres undefined),inhibition of growth at 0.1 µg/mL,[3],0.76%
same,inhibition of growth at 1 µg/mL,[10],0.69%
same,inhibition of growth at 100 µg/mL,[12],2.18%
O=C(CCCCC(S)CCS)Nc1ccccc1Cl (centres undefined),inhibition of growth at 0.1 µg/mL,[15],6.36%
same,inhibition of growth at 1 µg/mL,[2],7.72%
same,inhibition of growth at 0.1 µg/mL,[3],6.11%
same,inhibition of growth at 1 µg/mL,[10],3.08%
same,inhibition of growth at 0.1 µg/mL,[11],5.11%
same,inhibition of growth at 100 µg/mL,[12],12.1%
same,inhibition of growth at 10 µg/mL,[13],18.2%
same,inhibition of growth at 1 µg/mL,[14],8.19%
O=C(CCCCC1CCSS1)Nc1cccc2ccccc12 (centres undefined),inhibition of growth at 0.1 µg/mL,[15],2.36%
same,inhibition of growth at 1 µg/mL,[2],6.95%
same,inhibition of growth at 0.1 µg/mL,[3],0.34%
same,inhibition of growth at 1 µg/mL,[6],8.37%
same,inhibition of growth at 100 µg/mL,[8],7.22%
same,inhibition of growth at 10 µg/mL,[9],6.27%
same,inhibition of growth at 1 µg/mL,[10],9.55%
same,inhibition of growth at 0.1 µg/mL,[11],3.4%
same,inhibition of growth at 1 µg/mL,[14],4.15%
O=C(CCCCC(S)CCS)Nc1cccc(Cl)c1 (centres undefined),inhibition of growth at 0.1 µg/mL,[15],9.78%
same,inhibition of growth at 100 µg/mL,[4],8.04%
same,inhibition of growth at 100 µg/mL,[8],16.1%
same,inhibition of growth at 10 µg/mL,[9],3.22%
same,inhibition of growth at 1 µg/mL,[10],1.14%
same,inhibition of growth at 0.1 µg/mL,[11],3.09%
same,inhibition of growth at 100 µg/mL,[12],24.8%
same,inhibition of growth at 1 µg/mL,[14],7.2%
CC(=O)SCCC(CCCCC(=O)Nc1ccccc1Cl)SC(C)=O (centres undefined),inhibition of growth at 0.1 µg/mL,[15],16.6%
same,inhibition of growth at 0.1 µg/mL,[3],2.48%
same,inhibition of growth at 100 µg/mL,[4],6.93%
same,inhibition of growth at 10 µg/mL,[5],6.55%
same,inhibition of growth at 1 µg/mL,[6],8.21%
same,inhibition of growth at 0.1 µg/mL,[7],7.05%
same,inhibition of growth at 10 µg/mL,[9],3.09%
same,inhibition of growth at 1 µg/mL,[10],5.01%
same,inhibition of growth at 0.1 µg/mL,[11],6.61%
same,inhibition of growth at 100 µg/mL,[12],15.2%
same,inhibition of growth at 10 µg/mL,[13],11.4%
same,inhibition of growth at 1 µg/mL,[14],13.2%
O=C(CCCCC1CCSS1)Nc1ccccn1 (centres undefined),inhibition of growth at 0.1 µg/mL,[15],2.61%
same,inhibition of growth at 100 µg/mL,[1],51.9%
same,inhibition of growth at 0.1 µg/mL,[3],1.14%
same,inhibition of growth at 100 µg/mL,[4],25.1%
same,inhibition of growth at 100 µg/mL,[8],37.6%
same,inhibition of growth at 10 µg/mL,[9],5.77%
same,inhibition of growth at 0.1 µg/mL,[11],0.89%
same,inhibition of growth at 100 µg/mL,[12],39.3%
same,inhibition of growth at 1 µg/mL,[14],0.81%
O=C(CCCCC1CCSS1)NO (centres undefined),inhibition of growth at 0.1 µg/mL,[15],3.9%
same,inhibition of growth at 100 µg/mL,[4],12.4%
same,inhibition of growth at 10 µg/mL,[5],0.89%
same,inhibition of growth at 1 µg/mL,[6],2.57%
same,inhibition of growth at 0.1 µg/mL,[7],7.92%
same,inhibition of growth at 100 µg/mL,[8],12.5%
same,inhibition of growth at 10 µg/mL,[9],11.8%
same,inhibition of growth at 1 µg/mL,[10],7.39%
same,inhibition of growth at 0.1 µg/mL,[11],10.4%
same,inhibition of growth at 1 µg/mL,[14],0.64%
O=C(CCCCC(CCSC(=O)c1ccccc1)SC(=O)c1ccccc1)Nc1cccc(Cl)c1 (centres undefined),inhibition of growth at 0.1 µg/mL,[15],15.6%
same,inhibition of growth at 1 µg/mL,[2],3.38%
same,inhibition of growth at 0.1 µg/mL,[3],9.02%
same,inhibition of growth at 10 µg/mL,[5],16.6%
same,inhibition of growth at 1 µg/mL,[6],12.7%
same,inhibition of growth at 0.1 µg/mL,[7],10.7%
same,inhibition of growth at 0.1 µg/mL,[11],1.7%
same,inhibition of growth at 10 µg/mL,[13],9.12%
same,inhibition of growth at 1 µg/mL,[14],9.48%
O=C(CCCCC1CCSS1)Nc1ccc(Br)cn1 (centres undefined),inhibition of growth at 0.1 µg/mL,[15],9%
same,inhibition of growth at 100 µg/mL,[1],32.1%
same,inhibition of growth at 10 µg/mL,[16],29.6%
same,inhibition of growth at 1 µg/mL,[2],4.27%
same,inhibition of growth at 100 µg/mL,[4],42.3%
same,inhibition of growth at 10 µg/mL,[5],35.1%
same,inhibition of growth at 1 µg/mL,[6],4.33%
same,inhibition of growth at 100 µg/mL,[8],45.5%
same,inhibition of growth at 10 µg/mL,[9],24.5%
same,inhibition of growth at 1 µg/mL,[10],13.1%
same,inhibition of growth at 100 µg/mL,[12],52%
same,inhibition of growth at 10 µg/mL,[13],38%
same,inhibition of growth at 1 µg/mL,[14],13.1%
O=C(CCCCC(S)CCS)Nc1ccccn1 (centres undefined),inhibition of growth at 0.1 µg/mL,[15],5.01%
same,inhibition of growth at 100 µg/mL,[1],14.2%
same,inhibition of growth at 100 µg/mL,[4],18.5%
same,inhibition of growth at 10 µg/mL,[5],0.28%
same,inhibition of growth at 100 µg/mL,[8],3.62%
same,inhibition of growth at 100 µg/mL,[12],11.7%
same,inhibition of growth at 1 µg/mL,[14],2.31%
Cc1cccc(NC(=O)CCCCC(S)CCS)c1 (centres undefined),inhibition of growth at 0.1 µg/mL,[15],9.34%
same,inhibition of growth at 1 µg/mL,[2],2.76%
same,inhibition of growth at 0.1 µg/mL,[3],4.92%
same,inhibition of growth at 100 µg/mL,[4],17.5%
same,inhibition of growth at 10 µg/mL,[5],7.23%
same,inhibition of growth at 1 µg/mL,[6],3.31%
same,inhibition of growth at 0.1 µg/mL,[7],5.75%
same,inhibition of growth at 100 µg/mL,[8],7.08%
same,inhibition of growth at 10 µg/mL,[9],14.1%
same,inhibition of growth at 1 µg/mL,[10],11.1%
same,inhibition of growth at 0.1 µg/mL,[11],10.1%
same,inhibition of growth at 100 µg/mL,[12],23.1%
same,inhibition of growth at 10 µg/mL,[13],7.67%
same,inhibition of growth at 1 µg/mL,[14],9.43%
CC(=O)SCCC(CCCCC(=O)Nc1cccc(Cl)c1)SC(C)=O (centres undefined),inhibition of growth at 100 µg/mL,[1],38.1%
same,inhibition of growth at 0.1 µg/mL,[3],0.27%
same,inhibition of growth at 100 µg/mL,[4],48.8%
same,inhibition of growth at 1 µg/mL,[6],0.04%
same,inhibition of growth at 0.1 µg/mL,[7],5.72%
same,inhibition of growth at 100 µg/mL,[8],20.8%
same,inhibition of growth at 1 µg/mL,[10],0.56%
same,inhibition of growth at 0.1 µg/mL,[11],3.72%
same,inhibition of growth at 100 µg/mL,[12],42.8%
same,inhibition of growth at 10 µg/mL,[13],2.09%
same,inhibition of growth at 1 µg/mL,[14],0.31%
O=C(CCCCC(S)CCS)Nc1ccc(Br)cn1 (centres undefined),inhibition of growth at 0.1 µg/mL,[15],6.4%
same,inhibition of growth at 100 µg/mL,[1],56.8%
same,inhibition of growth at 10 µg/mL,[16],29.4%
same,inhibition of growth at 1 µg/mL,[2],2.51%
same,inhibition of growth at 100 µg/mL,[4],59.2%
same,inhibition of growth at 10 µg/mL,[5],34.1%
same,inhibition of growth at 1 µg/mL,[6],2.51%
same,inhibition of growth at 100 µg/mL,[8],41.1%
same,inhibition of growth at 10 µg/mL,[9],23.2%
same,inhibition of growth at 1 µg/mL,[10],4.71%
same,inhibition of growth at 100 µg/mL,[12],55.9%
same,inhibition of growth at 10 µg/mL,[13],39.2%
same,inhibition of growth at 1 µg/mL,[14],10.7%
O=C(CCCCC(CCSC(=O)c1ccccc1)SC(=O)c1ccccc1)Nc1ccc(Cl)cc1 (centres undefined),inhibition of growth at 0.1 µg/mL,[15],9.36%
same,inhibition of growth at 1 µg/mL,[2],1.29%
same,inhibition of growth at 0.1 µg/mL,[3],3.68%
same,inhibition of growth at 100 µg/mL,[4],5.78%
same,inhibition of growth at 10 µg/mL,[5],10.6%
same,inhibition of growth at 1 µg/mL,[6],11.7%
same,inhibition of growth at 0.1 µg/mL,[7],16.9%
same,inhibition of growth at 10 µg/mL,[9],4.87%
same,inhibition of growth at 1 µg/mL,[10],9.62%
same,inhibition of growth at 0.1 µg/mL,[11],9.2%
same,inhibition of growth at 10 µg/mL,[13],12.6%
same,inhibition of growth at 1 µg/mL,[14],9.8%
O=C(CCCCC(CCSC(=O)c1ccccc1)SC(=O)c1ccccc1)Nc1ccccc1 (centres undefined),inhibition of growth at 0.1 µg/mL,[15],0.6%
same,inhibition of growth at 1 µg/mL,[2],3.79%
same,inhibition of growth at 0.1 µg/mL,[3],3.12%
same,inhibition of growth at 10 µg/mL,[5],2.67%
same,inhibition of growth at 0.1 µg/mL,[7],1.52%
same,inhibition of growth at 10 µg/mL,[13],11.4%
same,inhibition of growth at 1 µg/mL,[14],5.93%
